Measurements taken from US9772334B2, “Inflammatory bowel disease markers and therapies for colitis-associated intestinal fibrosis” (THE REGENTS OF THE UNIVERSITY OF CALIFORNIA, priority 2012, dated 2017).

Legend:
[1] = tested on: TNBS mediated chronic colitis; assay: TNBS mediated chronic colitis in mice, intracolonic mCRAMP; type: in vivo; conditions: for colonic collagen deposition / TNBS induced colonic TNFα protein expression / colonic colla2 mRNA: intracolonic
Method: FIG. 1A is an illustration of the experimental plan of TNBS mediated chronic colitis. Wild-type and […] mice were injected with TNBS solution (0.5-1 mg per 20 g mice) in 30% ethanol or 30% ethanol only (vehicle control) under transient isoflurane anesthesia. […] All ethanol treated groups had approximately 20% body weight gain. […] Results are representative of n=6 mice per group.
Collagen was stained in blue. Collagen deposited in mucosal and submucosal layer of TNBS treated wild-type mice was reduced by CRAMP treatment. […] Intracolonic treatment of mCRAMP reduced colonic colla2 mRNA and collagen deposition in both WT (p=0.0364) and Camp^−/− (p=0.04) mice. Results are representative of n=6 mice per group.
Fibroblasts accumulated in the mucosal and submucosal locations as collagen deposition. […] Three different locations (3 separate images) per sample were counted. […] Cell migration was not affected by LL-37 (0-10 μM). Results are representative of 3 independent experiments.

[2] = tested on: TNBS acute colitis; assay: TNBS treated acute colitis in mice, intracolonic mCRAMP; type: in vivo; conditions: for colonic 16S expression: intracolonic
Excerpt: FIG. 20A is an illustration of TNBS experimental plan. […] Experiments included n=6 mice per group.
FIGS. 21B and 21C show colonic Camp mRNA expression of mice. […] There was no significant difference in 16S expression among wild-type and Camp−/− mice. n=6 mice per group.

[3] = tested on: Akt and ERK phosphorylation in Raw 264.7 macrophages; assay: LPS induced Akt and ERK phosphorylation in Raw 264.7 macrophages; type: cell-based, mouse; conditions: mCRAMP 10 μM; 30 minutes
Excerpt: […]. LPS induced TNFα expression is Akt dependent. […] All experiments are representative of 3 independent experiments.

[4] = tested on: TNFα expression in Raw264.7 macrophages; assay: PAMP induced TNFα expression in Raw264.7 macrophages; type: cell-based, mouse
Method: To identify the anti-inflammatory mechanism of cathelicidin, human PBMCs and mouse macrophages to were exposed to PAMP signals (LPS and E. coli DNA) in the presence of cathelicidin LL-37 or mCRAMP (1-10 μM).

[5] = tested on: DSS mediated colitis; conditions: intracolonic exogenous peptide; Tai et al. 2007; cited from earlier work
[6] = tested on: TNFα expression in Raw264.7 macrophages; assay: PAMP induced TNFα expression in Raw264.7 macrophages; type: cell-based, mouse; conditions: flagellin 50 ng/ml

mCRAMP
colonic collagen deposition ([1]; Camp−/− mice): reduced
TNBS induced colonic TNFα protein expression ([1]; Camp−/− mice, p=0.0054): significantly reduced TNBS induced TNFα protein expression
colonic colla2 mRNA ([1]; Camp−/− mice, p=0.04): reduced
histology score (H&E) ([1]; Camp−/− mice, p=0.04): significantly reduced histology score
percent of body weight change (week 0 to week 7) ([1]; TNBS treated Camp−/− mice): significant body weight loss regardless of mCRAMP treatment
collagen deposited in mucosal and submucosal layer (Masson Trichrome staining) ([1]; TNBS treated wild-type mice): reduced
percent of body weight change (week 0 to week 7) ([1]; TNBS treated wild-type mice, p=0.01): restored the body weight gain
colonic vimentin mRNA expression ([1]; WT and Camp−/− mice): did not affect
colonic α-SMA mRNA expression ([1]; WT and Camp−/− mice): did not affect
colonic collagen deposition ([1]; WT mice): reduced
TNBS induced colonic TNFα protein expression ([1]; WT mice, p=0.0127): significantly reduced TNBS induced TNFα protein expression
colonic colla2 mRNA ([1]; WT mice, p=0.0364): reduced
fibroblast accumulation (number of fibroblasts per field, vimentin immunohistochemistry) ([1]; chronic TNBS colitis): not affected
TNBS induced intestinal fibrosis ([1]; mCRAMP 5 mg/kg intracolonically): significantly reduces TNBS induced intestinal fibrosis
histology score (H&E) ([1]; wild-type mice, p=0.03): significantly reduced histology score
colonic TNFα levels ([2]; Camp−/− mice): significantly reduced colonic TNFα levels
colonic 16S expression ([2]; Camp−/− mice): significantly reduced colonic 16S expression
histological damage (histological score) ([2]; Camp−/− mice, p=0.0484): significantly reduced histological damage
colonic TNFα levels ([2]; wild-type mice): significantly reduced colonic TNFα levels
colonic 16S expression ([2]; wild-type mice): significantly reduced colonic 16S expression
histological damage (histological score) ([2]; wild-type mice, p=0.0006): significantly reduced histological damage
LPS induced Akt phosphorylation [3]: significantly suppressed
LPS induced ERK phosphorylation [3]: significantly suppressed
LPS induced TNF mRNA expression ([4]; mCRAMP 10 μM, 6 and 16 hours): did not alter
LPS induced TNFα protein expression in conditioned media ([4]; mCRAMP 10 μM, LPS 0.1 μg/ml, 16 hours): significantly reduced
E. coli DNA induced TNFα expression ([4]; mCRAMP 1-10 μM, E. coli DNA 0.5 μg/ml, 16 hours): no inhibitory effect
DSS mediated colitis [5]: ameliorates DSS mediated colitis
flagellin induced TNFα expression [6]: no inhibitory effect
